Test: RP, Waters XBridge C18, 50 × 2.1 mm, 3.5 µm, 30 °C, 0.2 mL/min, estimated dead time 0.55 min; A: water + 0.1% formic acid, pH 3; B: methanol + 0.1% formic acid, pH 3; gradient (min/%B) 0/10 4/50 17/95 25/95 25.1/10 30/10
Details: stereoisomer not certain
`CC(C)N(Cc1ccccc1)C(=O)C(C)(C)C` [Tebutam] showed an LC retention time of 11.7 min.
`CCNc1nc(NC(C)CC)nc(OC)n1` (configuration not stated) [Secbumeton] showed an LC retention time of 6.7 min.
Work on `N#Cc1cc(I)c(O)c(I)c1` [Ioxynil] yielded an LC retention time of 9.3 min.
`CC(C)N(C(=O)CS(=O)(=O)O)c1ccc(F)cc1` [Flufenacet ESA] showed an LC retention time of 6 min.
`CC(=O)N(C)N(C(=O)C(=O)N(C)C)c1ccccc1` [Dioxoaminopyrine] showed an LC retention time of 5.2 min.
With `O=P(O)(O)OCCC(F)(F)C(F)(F)C(F)(F)C(F)(F)C(F)(F)C(F)(F)C(F)(F)C(F)(F)F` [Perfluorodecyl phosphate] the LC retention time was 14.7 min.
`O=C(O)COCCN1CCN(C(c2ccccc2)c2ccc(Cl)cc2)CC1` (configuration not stated) [Cetirizine] gave an LC retention time of 9.3 min.
Compound `O=c1[nH]c(Cl)c(Cl)cc1Cl` [3,5,6-Trichloro-2-pyridinol] has an LC retention time of 9.7 min.
In the case of `COCCOCCOC` [Diglyme], the LC retention time is reported as 3.2 min.
For `CC(=O)Nc1c(I)c(C(=O)O)c(I)c(C(=O)NCCO)c1I` [Ioxitalamic acid], the LC retention time was 1.3 min.
`COCCN(C(=O)CCl)c1c(C)cccc1C` [Dimethachlor] gave an LC retention time of 9.1 min.
In the case of `O=C(Nc1ccc(F)cc1F)c1cccnc1Oc1cccc(C(F)(F)F)c1` [Diflufenican], the LC retention time is reported as 14.4 min.
In the case of `CC(=O)Nc1c(I)c(NC(C)=O)c(I)c(C(=O)O)c1I` [Diatrizoate], the LC retention time is reported as 1.6 min.
`CN(C)S(N)(=O)=O` [N,N-Dimethylsulfamide] showed an LC retention time of 1.1 min.
For `CN(C)S(=O)(=O)Nc1ccccc1` [N,N-Dimethyl-N'-phenylsulfamide], the LC retention time was 6.3 min.
`CCN1CCCC1CNC(=O)c1cc(S(=O)(=O)CC)c(N)cc1OC` (configuration not stated) [Amisulpride] showed an LC retention time of 3.8 min.
`Nc1c(Cl)c(F)nc(OCC(=O)O)c1Cl` [Fluroxypyr] showed an LC retention time of 6.9 min.
In the case of `COC(=O)C1C2CC3c4[nH]c5cc(OC)ccc5c4CCN3CC2CC(OC(=O)c2cc(OC)c(OC)c(OC)c2)C1OC` (configuration not stated) [Reserpine], the LC retention time is reported as 8.3 min.
Work on `Cc1ccc(NC(=O)N(C)C)cc1Cl` [Chlortoluron] yielded an LC retention time of 8.2 min.
In the case of `CC(=NC#N)N(C)Cc1ccc(Cl)nc1` [Acetamiprid], the LC retention time is reported as 5.3 min.
With `O=S(=O)(O)c1ccc2ccccc2c1` [2-Naphthalenesulfonic acid] the LC retention time was 5.2 min.
`CCOCN(C(=O)CS(=O)(=O)O)c1c(C)cccc1CC` [Acetochlor ESA] gave an LC retention time of 7.7 min.
`NC(=O)N1c2ccccc2C(O)C(O)c2ccccc21` (stereo not drawn) [10,11-trans-Dihydroxy-10,11-dihydrocarbamazepine] gave an LC retention time of 6.1 min.
In the case of `CNC(=C[N+](=O)[O-])NCCSCc1ccc(CN(C)C)o1` [Ranitidine], the LC retention time is reported as 1.9 min.
Compound `CC12C=CC(=O)C=C1CCC1C2C(O)CC2(C)C1CCC2(O)C(=O)CO` (configuration not stated) [Prednisolone] has an LC retention time of 8 min.
Compound `CC(Oc1ccc(Cl)cc1Cl)C(=O)O` (configuration not stated) [Dichlorprop] has an LC retention time of 10.7 min.
With `CN=CNc1ccc(C)cc1C` [N'-(2,4-Dimethylphenyl)-N-methylformamidine] the LC retention time was 4.5 min.
Work on `CC(C)(C)NCC(O)c1ccc(O)c(CO)c1` (configuration not stated) [Albuterol] yielded an LC retention time of 2 min.
For `O=C(O)c1ccccc1Nc1cccc(C(F)(F)F)c1` [Flufenamic acid], the LC retention time was 14.6 min.
In the case of `O=C(O)Cc1ccccc1Nc1c(Cl)cccc1Cl` [Diclofenac], the LC retention time is reported as 12.8 min.
Work on `CCN(CC)C(=O)SCc1ccccc1Cl` [Orbencarb] yielded an LC retention time of 13.3 min.
For `O=C1CCC2(O)C3Cc4ccc(O)c5c4C2(CCN3CC2CC2)C1O5` (configuration not stated) [Naltrexone], the LC retention time was 3.1 min.
With `Cc1cc(NS(=O)(=O)c2ccc(N)cc2)no1` [Sulfamethoxazole] the LC retention time was 4.6 min.
Compound `CCN(CC)CC(=O)Nc1c(C)cccc1C` [Lidocaine] has an LC retention time of 4.2 min.
Compound `COc1ccc2c(c1)c(CC(=O)O)c(C)n2C(=O)c1ccc(Cl)cc1` [Indomethacin] has an LC retention time of 12.9 min.
Work on `CCC1(c2ccccc2)C(=O)NCNC1=O` [Primidone] yielded an LC retention time of 5.4 min.
With `COCc1cnc(C2=NC(C)(C(C)C)C(=O)N2)c(C(=O)O)c1` (configuration not stated) [Imazamox] the LC retention time was 5.7 min.
`CC(C)N(C(=O)COc1nnc(C(F)(F)F)s1)c1ccc(F)cc1` [Flufenacet] gave an LC retention time of 11.7 min.
`CC(C)(Oc1ccc(CCNC(=O)c2ccc(Cl)cc2)cc1)C(=O)O` [Bezafibrate] gave an LC retention time of 10.6 min.
Compound `O=C(O)C(F)(F)C(F)(F)C(F)(F)C(F)(F)C(F)(F)F` [Perfluorohexanoic acid] has an LC retention time of 9.3 min.
With `CCc1cccc(C)c1N(C(=O)C(=O)O)C(C)COC` (configuration not stated) [Metolachlor OXA] the LC retention time was 9.3 min.
In the case of `CCNc1nc(Cl)nc(NC(C)C)n1` [Atrazine], the LC retention time is reported as 8.3 min.
